According to PMC6972948 (Scientific Reports, 2020):

Tested on: A/duck/Ukraine/1/1963
Assay type: cell-based, avian influenza A virus

CCC(CC)O[C@@H]1C=C(C(=O)O)C[C@H](N)[C@H]1NC(C)=O [Oseltamivir carboxylate, oseltamivir carboxylate]
plaque formation: complete abrogation of plaque formation | Plaque dia. (Conc. 1 μM): 0 mm | Plaque qty. (Conc. 1 μM): 0
